According to patent US20240033272A1, “USE OF C[…] THE TREATMENT OF SEIZURES ASSOCIATED WITH HERPES SIMPLEX VIRUS” (GW Research Limited, priority 2020, published 2024):
“Also recorded” adds a separate entry of the source.

System: patients diagnosed with herpes simplex virus (seizures associated with herpes simplex virus)
Experiment: Open label, expanded-access program: seizure frequency recorded by caregivers in a diary, change relative to baseline
Format: in vivo, human
Parameters: Reduction in myoclonic seizures over the treatment period / Reduction in absence seizures over the treatment period / Reduction in focal seizures with impairment over the treatment period / Reduction in tonic-clonic seizures over the treatment period / Reduction in atonic seizures over the treatment period / Reduction in tonic seizures over the treatment period: concentration or dose not given beside the values; Seizure frequency, tonic-clonic / Seizure frequency, myoclonic / Seizure frequency, absence / Seizure frequency, focal with impairment / Seizure frequency, tonic / Seizure frequency, focal without impairment / Seizure frequency, atonic: unit not given here
Conditions: for Seizure frequency, focal with impairment: baseline 14.0; for Seizure frequency, absence: baseline 28.0; for Seizure frequency, myoclonic: baseline 59.0; for Seizure frequency, tonic: baseline 24.0
Description: Subjects were required to be on one or more AEDs at stable doses for a minimum of two weeks prior to baseline and to have stable vagus nerve stimulation (VNS) settings and ketogenic diet ratios for a minimum of four weeks prior to baseline.
Modifications were made to concomitant AEDs as per clinical indication.
Seizure frequency, intensity, and duration were recorded by caregivers in a diary during a baseline period of at least 28 days. Changes in seizure frequency relative to baseline were calculated after at least 2 weeks and at defined timepoints of treatment.
Patients may be defined as responders if they had more than 50% reduction in seizure frequency compared to baseline. The percent change in seizure frequency was calculated as follows: […]
The percent change of seizure frequency may be calculated for any time interval where seizure number has been recorded. For the purpose of this example the percent change of seizure frequency for the end of the treatment period was calculated as follows: […]

[1] = Patient 4, treated for 24 weeks, vs baseline
[2] = Patient 5, 4 weeks, CBD 20.0 mg/kg/day
[3] = Patient 5, 8 weeks, CBD 25.0 mg/kg/day
[4] = Patient 5, 12 weeks, CBD 25.0 mg/kg/day
[5] = Patient 5, 16 weeks, CBD 25.0 mg/kg/day
[6] = Patient 5, 24 weeks, CBD 30.0 mg/kg/day
[7] = Patient 5, 36 weeks, CBD 40.0 mg/kg/day
[8] = Patient 5, 60 weeks, CBD 50.0 mg/kg/day
[9] = Patient 5, 72 weeks, CBD 50.0 mg/kg/day
[10] = Patient 5, 84 weeks, CBD 30.0 mg/kg/day
[11] = Patient 5, 96 weeks, CBD 45.0 mg/kg/day
[12] = Patient 5, 108 weeks, CBD 45.0 mg/kg/day
[13] = Patient 5, 120 weeks, CBD 45.0 mg/kg/day
[14] = Patient 5, 132 weeks, CBD 45.0 mg/kg/day
[15] = Patient 5, 144 weeks, CBD 45.0 mg/kg/day
[16] = Patient 5, treated for 144 weeks, vs baseline

In the case of `C=C(C)[C@@H]1CCC(C)=C[C@H]1c1c(O)cc(CCCCC)cc1O` [CBD, cannabidiol], the “Seizure frequency, tonic-clonic” value (Patient 4, 16 weeks, CBD 15.0 mg/kg/day, baseline 10.0) was 0.7, the “Seizure frequency, focal with impairment” value (Patient 4, 16 weeks, CBD 15.0 mg/kg/day) was 2.7 and the “Seizure frequency, atonic” value (Patient 4, 16 weeks, CBD 15.0 mg/kg/day, baseline 20.0) was 14.0. The “Seizure frequency, tonic-clonic” value (Patient 4, 24 weeks, CBD 15.0 mg/kg/day, baseline 10.0) was 10.0, the “Seizure frequency, focal with impairment” value (Patient 4, 24 weeks, CBD 15.0 mg/kg/day) was 3.0 and the “Seizure frequency, atonic” value (Patient 4, 24 weeks, CBD 15.0 mg/kg/day, baseline 20.0) was 13.0. The “Reduction in atonic seizures over the treatment period” value [1] was 35%, the “Reduction in focal seizures with impairment over the treatment period” value [1] was 78.6% and the “Seizure frequency, absence” value [2] was 45.0. The “Seizure frequency, myoclonic” value [2] was 75.0, the “Seizure frequency, tonic-clonic” value (Patient 5, 4 weeks, CBD 20.0 mg/kg/day, baseline 71.0) was 75.0 and the “Seizure frequency, atonic” value (Patient 5, 4 weeks, CBD 20.0 mg/kg/day, baseline 748.0) was 965.0. The “Seizure frequency, absence” value [3] was 0.0, the “Seizure frequency, myoclonic” value [3] was 60.0 and the “Seizure frequency, tonic-clonic” value (Patient 5, 8 weeks, CBD 25.0 mg/kg/day, baseline 71.0) was 7.0. For the same compound, the “Seizure frequency, atonic” value (Patient 5, 8 weeks, CBD 25.0 mg/kg/day, baseline 748.0) was 8.0, the “Seizure frequency, absence” value [4] was 0.0 and the “Seizure frequency, myoclonic” value [4] was 1.0. For the same compound, the “Seizure frequency, tonic-clonic” value (Patient 5, 12 weeks, CBD 25.0 mg/kg/day, baseline 71.0) was 4.0, the “Seizure frequency, atonic” value (Patient 5, 12 weeks, CBD 25.0 mg/kg/day, baseline 748.0) was 25.0 and the “Seizure frequency, absence” value [5] was 0.0. For the same compound, the “Seizure frequency, myoclonic” value [5] was 0.0, the “Seizure frequency, tonic-clonic” value (Patient 5, 16 weeks, CBD 25.0 mg/kg/day, baseline 71.0) was 10.0 and the “Seizure frequency, atonic” value (Patient 5, 16 weeks, CBD 25.0 mg/kg/day, baseline 748.0) was 53.0. For the same compound, the “Seizure frequency, absence” value [6] was 0.0, the “Seizure frequency, myoclonic” value [6] was 68.0 and the “Seizure frequency, tonic-clonic” value (Patient 5, 24 weeks, CBD 30.0 mg/kg/day, baseline 71.0) was 40.0. For the same compound, the “Seizure frequency, absence” value [7] was 0.0, the “Seizure frequency, myoclonic” value [7] was 129.0 and the “Seizure frequency, tonic-clonic” value (Patient 5, 36 weeks, CBD 40.0 mg/kg/day, baseline 71.0) was 76.0. The “Seizure frequency, atonic” value (Patient 5, 36 weeks, CBD 40.0 mg/kg/day, baseline 748.0) was 44.0, the “Seizure frequency, absence” value [8] was 0.0 and the “Seizure frequency, myoclonic” value [8] was 184.0. For the same compound, the “Seizure frequency, tonic-clonic” value (Patient 5, 60 weeks, CBD 50.0 mg/kg/day, baseline 71.0) was 137.0, the “Seizure frequency, atonic” value (Patient 5, 60 weeks, CBD 50.0 mg/kg/day, baseline 748.0) was 45.0 and the “Seizure frequency, absence” value [9] was 3.0. For the same compound, the “Seizure frequency, myoclonic” value [9] was 141.0, the “Seizure frequency, tonic-clonic” value (Patient 5, 72 weeks, CBD 50.0 mg/kg/day, baseline 71.0) was 130.0 and the “Seizure frequency, atonic” value (Patient 5, 72 weeks, CBD 50.0 mg/kg/day, baseline 748.0) was 46.3. For the same compound, the “Seizure frequency, absence” value [10] was 5.7, the “Seizure frequency, myoclonic” value [10] was 81.0 and the “Seizure frequency, tonic-clonic” value (Patient 5, 84 weeks, CBD 30.0 mg/kg/day, baseline 71.0) was 77.0. The “Seizure frequency, atonic” value (Patient 5, 84 weeks, CBD 30.0 mg/kg/day, baseline 748.0) was 39.3, the “Seizure frequency, absence” value [11] was 8.0 and the “Seizure frequency, myoclonic” value [11] was 41.0. For the same compound, the “Seizure frequency, tonic-clonic” value (Patient 5, 96 weeks, CBD 45.0 mg/kg/day, baseline 71.0) was 72.0, the “Seizure frequency, atonic” value (Patient 5, 96 weeks, CBD 45.0 mg/kg/day, baseline 748.0) was 97.0 and the “Seizure frequency, absence” value [12] was 11.0. For the same compound, the “Seizure frequency, myoclonic” value [12] was 64.0, the “Seizure frequency, tonic-clonic” value (Patient 5, 108 weeks, CBD 45.0 mg/kg/day, baseline 71.0) was 53.0 and the “Seizure frequency, atonic” value (Patient 5, 108 weeks, CBD 45.0 mg/kg/day, baseline 748.0) was 92.0. The “Seizure frequency, absence” value [13] was 11.3, the “Seizure frequency, myoclonic” value [13] was 53.0 and the “Seizure frequency, tonic-clonic” value (Patient 5, 120 weeks, CBD 45.0 mg/kg/day, baseline 71.0) was 44.3. The “Seizure frequency, atonic” value (Patient 5, 120 weeks, CBD 45.0 mg/kg/day, baseline 748.0) was 72.3, the “Seizure frequency, absence” value [14] was 18.8 and the “Seizure frequency, myoclonic” value [14] was 66.4. The “Seizure frequency, tonic-clonic” value (Patient 5, 132 weeks, CBD 45.0 mg/kg/day, baseline 71.0) was 40.4, the “Seizure frequency, atonic” value (Patient 5, 132 weeks, CBD 45.0 mg/kg/day, baseline 748.0) was 128.0 and the “Seizure frequency, absence” value [15] was 49.6. The “Seizure frequency, myoclonic” value [15] was 78.0, the “Seizure frequency, tonic-clonic” value (Patient 5, 144 weeks, CBD 45.0 mg/kg/day, baseline 71.0) was 18.0 and the “Seizure frequency, atonic” value (Patient 5, 144 weeks, CBD 45.0 mg/kg/day, baseline 748.0) was 78.4. For the same compound, the “Reduction in atonic seizures over the treatment period” value [16] was 89.5%, the “Reduction in tonic-clonic seizures over the treatment period” value [16] was 76.4% and the “Seizure frequency, tonic” value (Patient 6, 2 weeks, CBD 5.0 mg/kg/day) was 40.0. For the same compound, the “Seizure frequency, tonic” value (Patient 6, 4 weeks, CBD 10.0 mg/kg/day) was 20.0, the “Seizure frequency, tonic” value (Patient 6, 8 weeks, CBD 20.0 mg/kg/day) was 32.0 and the “Seizure frequency, tonic” value (Patient 6, 12 weeks, CBD 25.0 mg/kg/day) was 12.0. The “Seizure frequency, tonic” value (Patient 6, 24 weeks, CBD 25.0 mg/kg/day) was 15.2, the “Seizure frequency, tonic” value (Patient 6, 36 weeks, CBD 25.0 mg/kg/day) was 15.2 and the “Seizure frequency, tonic” value (Patient 6, 48 weeks, CBD 25.0 mg/kg/day) was 18.0. The “Seizure frequency, tonic” value (Patient 6, 60 weeks, CBD 25.0 mg/kg/day) was 19.2, the “Reduction in tonic seizures over the treatment period” value (Patient 6, treated for 60 weeks, vs baseline) was 20% and the “Reductions in seizures over period of treatment, overall” value (all six patients, tonic, tonic-clonic, atonic, myoclonic, absence and focal seizures with impairment) was 20-100%. For the same compound, the “Benefit in patients with focal seizures with impairment (in words)” value (patients 1 and 4) was “significant benefit” and the “Effect on seizure frequency (in words)” value (six patients, tonic, tonic-clonic, atonic, myoclonic, absence and focal seizures with impairment) was “effective in reducing the frequency; also recorded: significantly reduce the number of seizures; also recorded: significant reduction”.
